Reference: article PMC12722308, “A phase 1 study of orally administered 5-fluoro-2’-deoxycytidine with tetrahydrouridine in patients with refractory solid tumors” (Cancer Chemotherapy and Pharmacology, 2025)
Marks after values point to notes of the source that are not given here.

Legend:
[1] = Plasma pharmacokinetics by LC-MS/MS; type: in vivo, human
Method: (§1) Blood specimens for PK analysis were collected on Cycle 1 Day 1 (C1D1) prior to THU administration and then at 15, 30, and 45 min and 1, 2, 3, 4, 5, and 6 h after THU administration, as well as on C1D2 and C1D3 prior to and 2 h after THU administration. Urine specimens for PK analysis were collected on C1D1 prior to treatment and then at every void from 0 to 24 h after THU administration. All specimens for PK analysis were processed and analyzed by LC-MS/MS as described previously, and Phoenix WinNonlin software was used for data analysis.

[2] = Urinary excretion by LC-MS/MS; type: in vivo, human
Method: as §1

[3] = DL2: FdCyd 60 mg + THU 3000 mg oral, FU n=3, geom. mean (geom. SD)
[4] = DL3: FdCyd 90 mg + THU 3000 mg oral, FU n=3, geom. mean (geom. SD)
[5] = DL4: FdCyd 120 mg + THU 3000 mg oral, FU n=2, geom. mean (geom. SD)
[6] = DL5-9: FdCyd 160 mg + THU 3000 mg oral, FU n=29, geom. mean (geom. SD)
[7] = DL10: FdCyd 60 mg + THU 6000 mg oral, FU n=8, geom. mean (geom. SD)
[8] = DL11: FdCyd 80 mg + THU 6000 mg oral, FU n=3, geom. mean (geom. SD)
[9] = All FdCyd doses + THU 3000 mg oral (n=44), geom. mean (geom. SD)
[10] = All FdCyd doses + THU 6000 mg oral (n=11), geom. mean (geom. SD)
[11] = DL1: FdCyd 30 mg + THU 3000 mg oral (n=3), geom. mean (geom. SD)
[12] = DL1: FdCyd 30 mg + THU 3000 mg oral (n=3), no SD given
[13] = DL2: FdCyd 60 mg + THU 3000 mg oral (n=4), geom. mean (geom. SD)
[14] = DL3: FdCyd 90 mg + THU 3000 mg oral (n=3), geom. mean (geom. SD)
[15] = DL4: FdCyd 120 mg + THU 3000 mg oral (n=3), geom. mean (geom. SD)
[16] = DL5-9: FdCyd 160 mg + THU 3000 mg oral (n=31), geom. mean (geom. SD)
[17] = DL10: FdCyd 60 mg + THU 6000 mg oral (n=8), geom. mean (geom. SD)
[18] = DL11: FdCyd 80 mg + THU 6000 mg oral (n=3), geom. mean (geom. SD)
[19] = Total, all dose levels (n=55), geom. mean (geom. SD)

Question: What does the source list for O=c1[nH]cc(F)c(=O)[nH]1 [FU]?
Answer: FU AUC0-inf [1, 3]: 0.019 (1.70) mg/L•h; FU Cmax [1, 3]: 0.0042 (1.2) mg/L; FU AUC0-inf [1, 4]: 0.026 (1.54) mg/L•h; FU Cmax [1, 4]: 0.0055 (1.1) mg/L; FU AUC0-inf [1, 5]: 0.032 (1.12) mg/L•h; FU Cmax [1, 5]: 0.0082 (1.4) mg/L; FU AUC0-inf [1, 6]: 0.052 (1.66) mg/L•h; FU Cmax [1, 6]: 0.015 (1.6) mg/L; FU AUC0-inf [1, 7]: 0.033 (1.30) mg/L•h; FU Cmax [1, 7]: 0.011 (1.3) mg/L; FU AUC0-inf [1, 8]: 0.044 (1.36) mg/L•h; FU Cmax [1, 8]: 0.010 (1.1) mg/L; FU urinary excretion over 0-24 hours of day 1 ([2]; All FdCyd doses + THU 3000 mg, N=27, geom. mean (geom. SD)): 0.37 (2.0) % dose; FU urinary excretion over 0-24 hours of day 1 ([2]; All FdCyd doses + THU 6000 mg, N=9, geom. mean (geom. SD)): 0.27 (2.5) % dose; FU urinary excretion over 0-24 hours of day 1 ([2]; DL1: FdCyd 30 mg + THU 3000 mg, N=1): 0.20 (-) % dose; FU urinary excretion over 0-24 hours of day 1 ([2]; DL2: FdCyd 60 mg + THU 3000 mg, N=1): 0.51 (-) % dose; FU urinary excretion over 0-24 hours of day 1 ([2]; DL4: FdCyd 120 mg + THU 3000 mg, N=1): 0.34 (-) % dose; FU urinary excretion over 0-24 hours of day 1 ([2]; DL5-9: FdCyd 160 mg + THU 3000 mg, N=24, geom. mean (geom. SD)): 0.38 (2.1) % dose; FU urinary excretion over 0-24 hours of day 1 ([2]; DL10: FdCyd 60 mg + THU 6000 mg, N=6, geom. mean (geom. SD)): 0.32 (2.5) % dose; FU urinary excretion over 0-24 hours of day 1 ([2]; DL11: FdCyd 80 mg + THU 6000 mg, N=3, geom. mean (geom. SD)): 0.21 (3.0) % dose

Question: What does the source list for O=c1[nH]c(=O)n([C@H]2C[C@H](O)[C@@H](CO)O2)cc1F [FdUrd]?
Answer: FdUrd AUC/Dose [1, 9]: 0.55 (1.6)^d µg/L•h/mg; FdUrd Cmax/Dose [1, 9]: 0.19 (1.6)^c µg/L / mg; FdUrd t½ [1, 9]: 1.3 (1.9) h; FdUrd/FdCyd metabolic ratio, AUC0-inf [1, 9]: 0.068 (2.1)^f; FdUrd/FdCyd metabolic ratio, Cmax [1, 9]: 0.048 (2.0)^e; FdUrd AUC/Dose [1, 10]: 0.80 (1.6)^d µg/L•h/mg; FdUrd Cmax/Dose [1, 10]: 0.34 (1.5)^c µg/L / mg; FdUrd t½ [1, 10]: 1.2 (1.6) h; FdUrd/FdCyd metabolic ratio, AUC0-inf [1, 10]: 0.067 (1.4)^f; FdUrd/FdCyd metabolic ratio, Cmax [1, 10]: 0.051 (1.9)^e; FdUrd Cmax [1, 11]: 0.012 (1.4) mg/L; FdUrd Cmax/Dose [1, 11]: 0.41 (1.4) µg/L / mg; FdUrd/FdCyd metabolic ratio, Cmax [1, 11]: 0.099 (1.6); FdUrd AUC0-inf [1, 12]: 0.047 (-) mg/L•h; FdUrd AUC/Dose [1, 12]: 1.58 (-) µg/L•h/mg; FdUrd t½ [1, 12]: 3.3 (-) h; FdUrd/FdCyd metabolic ratio, AUC0-inf [1, 12]: 0.069 (-); FdUrd AUC0-inf [1, 13]: 0.044 (1.72) mg/L•h; FdUrd AUC/Dose [1, 13]: 0.73 (1.7) µg/L•h/mg; FdUrd Cmax [1, 13]: 0.011 (1.7) mg/L; FdUrd Cmax/Dose [1, 13]: 0.19 (1.7) µg/L / mg; FdUrd t½ [1, 13]: 1.8 (3.4) h; FdUrd/FdCyd metabolic ratio, AUC0-inf [1, 13]: 0.070 (3.5); FdUrd/FdCyd metabolic ratio, Cmax [1, 13]: 0.039 (2.3); FdUrd AUC0-inf [1, 14]: 0.043 (1.20) mg/L•h; FdUrd AUC/Dose [1, 14]: 0.48 (1.2) µg/L•h/mg; FdUrd Cmax [1, 14]: 0.015 (1.2) mg/L; FdUrd Cmax/Dose [1, 14]: 0.16 (1.2) µg/L / mg; FdUrd t½ [1, 14]: 1.1 (1.3) h; FdUrd/FdCyd metabolic ratio, AUC0-inf [1, 14]: 0.041 (1.7); FdUrd/FdCyd metabolic ratio, Cmax [1, 14]: 0.028 (1.7); FdUrd AUC0-inf [1, 15]: 0.054 (1.97) mg/L•h; FdUrd AUC/Dose [1, 15]: 0.45 (2.0) µg/L•h/mg; FdUrd Cmax [1, 15]: 0.016 (1.6) mg/L; FdUrd Cmax/Dose [1, 15]: 0.14 (1.6) µg/L / mg; FdUrd t½ [1, 15]: 1.7 (1.2) h; FdUrd/FdCyd metabolic ratio, AUC0-inf [1, 15]: 0.034 (1.3); FdUrd/FdCyd metabolic ratio, Cmax [1, 15]: 0.018 (1.3); FdUrd AUC0-inf [1, 16]: 0.084 (1.55) mg/L•h; FdUrd AUC/Dose [1, 16]: 0.53 (1.6) µg/L•h/mg; FdUrd Cmax [1, 16]: 0.031 (1.5) mg/L; FdUrd Cmax/Dose [1, 16]: 0.20 (1.5) µg/L / mg; FdUrd t½ [1, 16]: 1.2 (1.7) h; FdUrd/FdCyd metabolic ratio, AUC0-inf [1, 16]: 0.070 (1.8); FdUrd/FdCyd metabolic ratio, Cmax [1, 16]: 0.054 (1.9); FdUrd AUC0-inf [1, 17]: 0.047 (1.59) mg/L•h; FdUrd AUC/Dose [1, 17]: 0.79 (1.6) µg/L•h/mg; FdUrd Cmax [1, 17]: 0.023 (1.4) mg/L; FdUrd Cmax/Dose [1, 17]: 0.38 (1.4) µg/L / mg; FdUrd t½ [1, 17]: 1.0 (1.5) h; FdUrd/FdCyd metabolic ratio, AUC0-inf [1, 17]: 0.072 (1.4); FdUrd/FdCyd metabolic ratio, Cmax [1, 17]: 0.060 (1.8); FdUrd AUC0-inf [1, 18]: 0.068 (1.68) mg/L•h; FdUrd AUC/Dose [1, 18]: 0.85 (1.7) µg/L•h/mg; FdUrd Cmax [1, 18]: 0.019 (1.6) mg/L; FdUrd Cmax/Dose [1, 18]: 0.24 (1.6) µg/L / mg; FdUrd t½ [1, 18]: 1.7 (1.5) h; FdUrd/FdCyd metabolic ratio, AUC0-inf [1, 18]: 0.056 (1.2); FdUrd/FdCyd metabolic ratio, Cmax [1, 18]: 0.033 (1.8); FdUrd Cmax/Dose [1, 19]: 0.22 (1.6) µg/L / mg; FdUrd t½ [1, 19]: 1.3 (1.8) h; FdUrd urinary excretion over 0-24 hours of day 1 ([2]; All FdCyd doses + THU 3000 mg, N=5, geom. mean (geom. SD)): 0.053 (1.3) % dose; FdUrd urinary excretion over 0-24 hours of day 1 ([2]; All FdCyd doses + THU 6000 mg, N=3, geom. mean (geom. SD)): 0.10 (2.6) % dose; FdUrd urinary excretion over 0-24 hours of day 1 ([2]; DL4: FdCyd 120 mg + THU 3000 mg, N=2, geom. mean (geom. SD)): 0.064 (1.0) % dose; FdUrd urinary excretion over 0-24 hours of day 1 ([2]; DL5-9: FdCyd 160 mg + THU 3000 mg, N=3, geom. mean (geom. SD)): 0.047 (1.3) % dose; FdUrd urinary excretion over 0-24 hours of day 1 ([2]; DL10: FdCyd 60 mg + THU 6000 mg, N=2, geom. mean (geom. SD)): 0.14 (2.6) % dose; FdUrd urinary excretion over 0-24 hours of day 1 ([2]; DL11: FdCyd 80 mg + THU 6000 mg, N=1): 0.045 (-) % dose
